One assay concerns the target T1, hTLR7 (Homo sapiens, UniProt Q9NYK1).
T1 construct: human B lymphoblasts (Daudi cells); endogenous in cells; host or cells: Daudi
Kind of assay: TLR7 inhibition, R848-induced hTNFα in Daudi. The format is cell-based. The procedure: RAW 264.7 and differentiated THP-1 cells were seeded into 96-well plates at 2 × 10^4 cells per well, while Daudi cells were seeded at 5 × 10^4 cells per well. After stabilization for 30 min, cells were stimulated with specific TLR agonists for 4 or 24 h. Supernatants were diluted and transferred to precoated ELISA plates to measure TNF-α secretion using kits from Invitrogen. Optical absorbance was measured using a BioTek Synergy HTX multimode microplate reader, and data were interpolated using BioTek Gen5 software.
One-tailed paired Student’s t-tests were performed using Microsoft Excel (Microsoft). Semi-logarithmic conversions and nonregression curve analyses for calculating 50% lethal concentration (LC50) and 50% inhibitory concentration (IC50) values were conducted using GraphPad Prism 7.0 (GraphPad). The therapeutic index was calculated as […]. Animal experimental results are expressed as mean ± standard deviation and analyzed using SPSS v.20 (IBM SPSS Statistics). Homogeneity of variance was assessed using Levene’s test.
[…] Data are from at least three independent experiments (n = 3) and statistical differences between the induced case and other cases were analyzed and verified using a one-tailed Student’s t-test (*P < 0.05, **P < 0.01, ***P < 0.001).

The subject of another assay is TLR9. Put plainly: FACS analysis of FAM-labeled CpG-ODN uptake and retention. The class given is cell-based. The settings on record: for Endocytosis of CpG ODNs: 30-min treatment with labeled CpG ODNs. On the procedure: RAW 264.7 cells were seeded into 60-mm dishes at 2 × 10^6 cells per dish. After 30 min of treatment with ETI41 or ETI60, cells were incubated with 1 μM of 3’-FAM-labeled ODN 2395 (Bioneer Inc.) for 30 min. Fluorescence intensity was measured using a NovoCyte Flow Cytometer (Agilent Technologies) and analyzed using NovoExpress software.
Fig. 3 Binding mechanism of ETI41 and ETI60 with TLR7 and TLR9. a ETI41 and ETI60 bind to the extracellular domain of TLR7. b Detailed intermolecular interactions ofETI41 and ETI60 are shown with the key residues of TLR7. c ETI41 and ETI60 bind to the extracellular domain of TLR9. d Intermolecular interactions of ETI41 and ETI60 with the key residues of TLR9. The asterisk indicates chain A of TLR7 and TLR9. ETI41 and ETI60 are depicted in ball-and-stick models. Bonds are represented by lines, with distances measured in ångström (Å) units. […] Data presented are from three independent experiments (n = 3), and statistical differences between the induced case and other cases were analyzed and verified using a one-tailed Student’s t-test (*P < 0.05, **P < 0.01, ***P < 0.001). TEXT PRINTED IN THE PICTURE: (f) ETI41: ODN-Fm (30min): Q3-1 0.00%; ODN-Fm (30min): Q3-2 0.00%; ODN-Fm (30min): Q3-3 10.75%; ODN-Fm (30min): Q3-4 89.25%; ODN-Fm (30min) → Washing → Incubation (1h): Q3-1 0.00%; ODN-Fm (30min) → Washing → Incubation (1h): Q3-2 0.00%; ODN-Fm (30min) → Washing → Incubation (1h): Q3-3 40.96%; ODN-Fm (30min) → Washing → Incubation (1h): Q3-4 59.04% | (f) ETI60: ODN-Fm (30min): Q3-1 0.00%; ODN-Fm (30min): Q3-2 0.00%; ODN-Fm (30min): Q3-3 12.80%; ODN-Fm (30min): Q3-4 87.20%; ODN-Fm (30min) → Washing → Incubation (1h): Q3-1 0.00%; ODN-Fm (30min) → Washing → Incubation (1h): Q3-2 0.00%; ODN-Fm (30min) → Washing → Incubation (1h): Q3-3 56.37%; ODN-Fm (30min) → Washing → Incubation (1h): Q3-4 43.63% DOUBTS OF THE COPYIST ABOUT THIS PICTURE: Panel f, very small print: the digits 3, 5, 6, 8 and 9 cannot be told apart with certainty in any quadrant percentage. / ETI41, ODN-Fm (30min): Q3-3 10.75% and Q3-4 89.25% are best readings / ETI60, ODN-Fm (30min): Q3-3 12.80% and Q3-4 87.20% are best readings / ETI41, Washing/Incubation (1h): Q3-3 40.96% and Q3-4 59.04% are best readings / ETI60, Washing/Incubation (1h): Q3-3 56.37% and Q3-4 43.63% are best readings / Panel f: the control plots ('Con' and '-') also print quadrant percentages. They are left out because they are not substance results.
FACS analysis further validated the binding of ETI41 and ETI60. Unmethylated CpG ODNs, acting as ligands for TLR9, were fluorescently labeled, and their cellular penetration was monitored.

Each structure is given as a SMILES string.

T1 sequence (Q9NYK1 27-1049): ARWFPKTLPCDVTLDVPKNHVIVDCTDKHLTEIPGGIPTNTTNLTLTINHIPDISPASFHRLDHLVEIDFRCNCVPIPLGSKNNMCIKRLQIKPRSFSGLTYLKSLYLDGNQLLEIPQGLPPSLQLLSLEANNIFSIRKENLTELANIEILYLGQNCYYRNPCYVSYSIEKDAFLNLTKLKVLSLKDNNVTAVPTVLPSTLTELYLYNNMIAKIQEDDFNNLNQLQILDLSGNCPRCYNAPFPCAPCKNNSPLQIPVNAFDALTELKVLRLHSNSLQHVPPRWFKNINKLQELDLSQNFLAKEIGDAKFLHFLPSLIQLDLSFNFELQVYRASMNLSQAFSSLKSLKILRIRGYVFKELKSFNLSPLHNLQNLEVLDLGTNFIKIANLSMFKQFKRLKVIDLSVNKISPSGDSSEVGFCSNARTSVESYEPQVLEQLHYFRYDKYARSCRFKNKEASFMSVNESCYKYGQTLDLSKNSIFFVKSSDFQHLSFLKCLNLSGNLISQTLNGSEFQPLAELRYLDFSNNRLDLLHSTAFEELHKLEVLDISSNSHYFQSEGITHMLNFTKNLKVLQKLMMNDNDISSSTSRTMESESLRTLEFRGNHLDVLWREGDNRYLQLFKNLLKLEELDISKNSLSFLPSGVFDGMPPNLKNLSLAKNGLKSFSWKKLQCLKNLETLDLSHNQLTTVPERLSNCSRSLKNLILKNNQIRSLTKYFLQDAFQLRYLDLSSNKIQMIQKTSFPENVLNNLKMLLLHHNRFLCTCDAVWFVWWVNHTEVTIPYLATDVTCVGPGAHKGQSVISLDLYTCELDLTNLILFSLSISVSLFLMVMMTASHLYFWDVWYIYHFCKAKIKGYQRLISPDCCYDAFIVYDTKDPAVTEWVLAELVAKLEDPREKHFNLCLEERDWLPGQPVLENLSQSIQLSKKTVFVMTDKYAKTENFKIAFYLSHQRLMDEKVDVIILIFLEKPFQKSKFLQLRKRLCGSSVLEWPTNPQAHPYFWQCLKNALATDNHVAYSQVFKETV

As to `Cc1cc2c(N)c3c(nc2n1CCCN(C)C)CCCCCC3` [ETI41], the concentration for half-maximal inhibition (IC50) on hTLR7 worked out at 947 nM. Besides, in the assay on TLR9, the “Endocytosis of CpG ODNs” value is “did not interfere with endocytosis” and the “Fluorescence intensity of labeled CpG ODN after washing” value is listed as “reduction in fluorescence intensity”.

In the case of `COc1ccc2c3c(N)c4c(nc3n(CCCN(C)C)c2c1)CCCC4` [ETI60], the half-inhibitory concentration (IC50) on hTLR7 was determined as 668 nM. In the assay with TLR9, the “Endocytosis of CpG ODNs” value was “did not interfere with endocytosis” and the “Fluorescence intensity of labeled CpG ODN after washing” value was “reduction in fluorescence intensity”.

Values taken from paper PMC12508057, “Discovery of ETI41 and ETI60: novel selective endosomal Toll-like receptor inhibitors for the treatment of autoimmune diseases” (Experimental & Molecular Medicine, 2025).
